Patent publication US20240239775A1, “FXR REGULATOR, PREPARATION METHOD THEREFOR, PHARMACEUTICAL COMPOSITION THEREOF AND USE THEREOF” (QINGDAO RUIJI MEDICAL TECHNOLOGY CO., LTD., priority 2021, published 2024)

Each molecule was assayed against T1, FXR (Homo sapiens, UniProt Q96RI1) (assay: FXR antagonist screening by TR-FRET (LanthaScreen TR-FRET FXR co-activation assay kit)). Settings: Table 1.1, FXR antagonistic activity; TR-FRET with CDCA; geometric means of at least two independent runs.
T1 construct: 5 μL of 20 nM FXR-LBD Complete Coregulator buffer G; purchased ThermoFisher PV4833
T1 sequence (Q96RI1 262-486 limits assumed): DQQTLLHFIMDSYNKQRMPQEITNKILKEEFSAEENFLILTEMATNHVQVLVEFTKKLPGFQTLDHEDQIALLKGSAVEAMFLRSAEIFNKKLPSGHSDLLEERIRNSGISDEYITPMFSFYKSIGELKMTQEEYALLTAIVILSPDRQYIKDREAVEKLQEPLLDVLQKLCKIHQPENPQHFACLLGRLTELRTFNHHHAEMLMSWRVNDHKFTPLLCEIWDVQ
Type: biochemical
In short: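 FXR-LBD (20 nM working solution) mixed with compound, CDCA (200 μM working solution) as agonist, Fluorescein-SRC2-2 and Tb-anti-GST antibody in Coregulator buffer G; 10 h at room temperature. Coactivator recruitment read by TR-FRET, triplicate wells.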
For `CCOC(=O)c1oc2ccc(S(=O)(=O)N(CCc3ccccc3)c3ccc(N4CCN(C(=O)CC(C)(C)C)CC4)cc3)cc2c1C` [Example M8-66, ethyl 3-methyl-5-(N-(4-(4-(3,3-dimethylbutyryl)piperazin-1-yl)phenyl)-N-phenethylsulfamoyl)benzofuran-2-carboxylate], the IC50 was 50 to 100 µM. With `CCCOC(=O)N1CCN(c2ccc(N(CCc3ccccc3)S(=O)(=O)c3ccc4oc(C(=O)OCC)c(C)c4c3)cc2)CC1` [Example M8-67, ethyl 3-methyl-5-(N-(4-(4-(propoxycarbonyl)piperazin-1-yl)phenyl)-N-phenethylsulfamoyl)benzo furan-2-carboxylate] the IC50 was 50 to 100 µM. `CCOC(=O)c1oc2ccc(S(=O)(=O)N(CCc3ccccc3)Cc3cccc(C(F)(F)F)c3)cc2c1C` [Example M4-24, ethyl 3-methyl-5-(N-(3-trifluoromethylbenzyl)-N-phenethylsulfamoyl)benzofuran-2-carboxylate] showed an IC50 of 50 to 100 µM. Molecule `CCOC(=O)c1oc2ccc(S(=O)(=O)N(CCc3ccccc3)Cc3ccc(N4CCN(C(=O)OC(C)(C)C)CC4)cc3)cc2c1C` [Example M8-81, ethyl 3-methyl-5-(N-(4-(4-(tert-butoxycarbonyl)piperazin-1-yl)benzyl)-N-phenethylsulfamoyl)benzofuran-2-carboxylate] has an IC50 of 50 to 100 µM. For `CCOC(=O)c1oc2ccc(S(=O)(=O)N(CCc3ccccc3)Cc3cccc(-c4ccccc4)c3)cc2c1C` [Example M4-26, ethyl 3-methyl-5-(N-([1,1′-biphenyl]-3-ylmethyl)-N-phenethylsulfamoyl)benzofuran-2-carboxylate], the IC50 was 50 to 100 µM. Molecule `Cc1c(C(=O)O)oc2ccc(S(=O)(=O)N(CCc3ccccc3)c3ccccc3)cc12` [Example F27-S10, 3-methyl-5-(N-phenethyl-N-phenylsulfamoyl)benzofuran-2-carboxylic acid] has an IC50 of 50 to 100 µM. For `CCOC(=O)c1oc2ccc(S(=O)(=O)N(CCc3ccccc3)c3ccc(N4CCN(S(C)(=O)=O)CC4)cc3)cc2c1C` [Example M8-72, ethyl 3-methyl-5-(N-(4-(4-(methylsulfonyl)piperazin-1-yl)phenyl)-N-phenethylsulfamoyl)benzofuran-2-carboxylate], the IC50 was 50 to 100 µM. `CCOC(=O)c1oc2ccc(S(=O)(=O)N(CCc3ccccc3)Cc3ccc(C(F)(F)F)cc3C(F)(F)F)cc2c1C` [Example M4-58, ethyl 3-methyl-5-(N-(2,4-bis(trifluoromethyl)benzyl)-N-phenethylsulfamoyl)benzofuran-2-carboxylate] gave an IC50 of 50 to 100 µM. With `CCOC(=O)c1oc2ccc(S(=O)(=O)N(CCc3ccccc3)Cc3ccccc3[N+](=O)[O-])cc2c1C` [Example M4-19, ethyl 3-methyl-5-(N-(2-nitrobenzyl)-N-phenethylsulfamoyl)benzofuran-2-carboxylate] the IC50 was 50 to 100 µM. With `CCOC(=O)c1oc2ccc(S(=O)(=O)N(CCc3ccccc3)CCc3ccccc3)cc2c1C` [Example M8-13, ethyl 3-methyl-5-(N,N-diphenylethylsulfamoyl)benzofuran-2-carboxylate] the IC50 was 50 to 100 µM. `CCOC(=O)c1oc2ccc(S(=O)(=O)N(CCc3ccccc3)Cc3cccc(C)c3)cc2c1C` [Example M4-23, ethyl 3-methyl-5-(N-(3-methylbenzyl)-N-phenethylsulfamoyl)benzofuran-2-carboxylate] was tested, and the IC50 was 50 to 100 µM.

Same assay, conditions: Table 1.2, FXR antagonistic activity; TR-FRET with CDCA; geometric means of at least two independent runs
`Cc1cccc(C(=O)N2CCN(c3ccccc3N(CCc3ccccc3)S(=O)(=O)c3ccc4oc(C(=O)O)c(C)c4c3)CC2)c1` [Example F27-S108, 3-methyl-5-(N-(2-(4-(3-methylbenzoyl)piperazin-1-yl)phenyl)-N-phenethylsulfamoyl)benzofuran-2-carboxylic acid] was tested, and the IC50 was 0.1 to 10 µM. For `Cc1c(C(=O)O)sc2ccc(S(=O)(=O)N(CCc3ccccc3Cl)c3ccccc3N3CCN(C(=O)c4sccc4Br)CC3)cc12` [Example F27-S173, 5-(N-(2-(4-(3-bromothiophene-2-carbonyl)piperazin-1-yl)phenyl)-N-(2-chlorophenethyl)sulfamoyl)-3-methylbenzothiophene-2-carboxylic acid], the IC50 was 0.1 to 10 µM. `COc1ccccc1CCN(c1ccccc1N1CCN(C(=O)c2sccc2Br)CC1)S(=O)(=O)c1ccc2sc(C(=O)O)c(C)c2c1` [Example F27-S174, 5-(N-(2-(4-(3-bromothiophene-2-carbonyl)piperazin-1-yl)phenyl)-N-(2-methoxyphenethyl)sulfamoyl)-3-methylbenzothiophene-2-carboxylic acid] showed an IC50 of 0.1 to 10 µM. For `Cc1c(C(=O)O)oc2ccc(S(=O)(=O)N(CCc3ccccc3)c3ccccc3N3CCN(C(=O)c4ccsc4)CC3)cc12` [Example F27-S119, 3-methyl-5-(N-phenethyl-N-(2-(4-(thiophene-3-carbonyl)piperazin-1-yl)phenyl)sulfamoyl)benzofuran-2-carboxylic acid], the IC50 was 0.1 to 10 µM. For `CCOC(=O)c1oc2ccc(S(=O)(=O)N(CCc3ccccc3)c3ccccc3N3CCN(C(=O)c4ccccn4)CC3)cc2c1C` [Example M10-117, ethyl 3-methyl-5-(N-phenethyl-N-(2-(4-pyridineformylpiperazin-1-yl)phenyl)sulfamoyl)benzofuran-2-carboxylate], the IC50 was 50 to 100 µM. Molecule `COc1cccc(OC)c1C(=O)N1CCN(c2ccccc2N(CCc2ccccc2)S(=O)(=O)c2ccc3oc(C(=O)O)c(C)c3c2)CC1` [Example F27-S133, 5-(N-(2-(4-(2,6-dimethoxybenzoyl)piperazin-1-yl)phenyl)-N-phenethylsulfamoyl)3-methylbenzofuran-2-carboxylic acid] has an IC50 of 0.1 to 10 µM. Work on `CCOC(=O)c1oc2ccc(S(=O)(=O)N(CCc3ccccc3)c3ccccc3N3CCN(C(=O)c4ccc([N+](=O)[O-])cc4)CC3)cc2c1C` [Example M10-114, Ethyl 3-methyl-5-(N-(2-(4-(4-nitrobenzoyl)piperazin-1-yl)phenyl)-N-phenethylsulfamoyl)benzofuran-2-carboxylate] yielded an IC50 of 50 to 100 µM. For `Cc1c(C(=O)O)oc2ccc(S(=O)(=O)N(CCc3ccccc3)c3ccccc3N3CCN(C(=O)c4cncs4)CC3)cc12` [Example F27-S129, 3-methyl-5-(N-phenethyl-N-(2-(4-(thiazole-5-carbonyl)piperazin-1-yl)phenyl)sulfamoyl)benzofuran-2-carboxylic acid], the IC50 was 0.1 to 10 µM. Work on `CCOC(=O)c1oc2ccc(S(=O)(=O)N(CCc3ccccc3)c3ccccc3N3CCN(C(=O)c4ccc(C#Cc5ccccc5)cc4)CC3)cc2c1C` [Example M10-138, Ethyl 5-(N-(2-(4-(4-(phenylethynyl)benzoyl)piperazin-1-yl)phenyl)-N-phenethylsulfamoyl)3-methylbenzofuran-2-carboxylate] yielded an IC50 of 50 to 100 µM. `Cc1csc(C(=O)N2CCN(c3ccccc3N(CCc3ccccc3)S(=O)(=O)c3ccc4oc(C(=O)O)c(C)c4c3)CC2)c1` [Example F27-S140, 5-(N-(2-(4-(4-methylthiophene-2-formyl)piperazin-1-yl)phenyl)-N-phenethylsulfamoyl)3-methylbenzofuran-2-carboxylic acid] gave an IC50 of 0.1 to 10 µM. Molecule `CCOC(=O)c1oc2ccc(S(=O)(=O)N(CCc3ccccc3)c3ccccc3N3CCN(C(=O)c4cnco4)CC3)cc2c1C` [Example M10-131, Ethyl 3-methyl-5-(N-(2-(4-(oxazole-5-carbonyl)piperazin-1-yl)phenyl)-N-phenethylsulfamoyl)benzofuran-2-carboxylate] has an IC50 of 50 to 100 µM.
